From ChEMBL document CHEMBL1201862, “PubChem BioAssay data set” (2004)
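Method: 48-hour compound exposure of cells in 96-well plates, five concentrations, linear interpolation of endpoints. GI50: concentration for 50% inhibition of growth.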 Activity calls are given as the source filed them. Rule as the data show it: active = GI50 up to about 1.1 µM and inactive = higher.

How the values were obtained:
Assay in all cases: NCI tumour cell line growth inhibition, 48 h
SK-OV-3 = test system: SK-OV-3
A498 = test system: A498
RXF 631 = test system: RXF 631
OVCAR-5 = test system: OVCAR-5
MDA-MB-231 = test system: MDA-MB-231
LXFL 529 = test system: LXFL 529
TK-10 = test system: TK-10
786-0 = test system: 786-0
UACC-257 = test system: UACC-257
OVCAR-8 = test system: OVCAR-8
M19-MEL = test system: M19-MEL
HT-29 = test system: HT-29
IGROV-1 = test system: IGROV-1
HL-60 = test system: HL-60
SR = test system: SR
Malme-3M = test system: Malme-3M
KM-20L2 = test system: KM-20L2
T47D = test system: T47D
MCF7 = test system: MCF7
UACC-62 = test system: UACC-62
SW-620 = test system: SW-620
UO-31 = test system: UO-31
DMS-273 = test system: DMS-273
HOP-18 = test system: HOP-18
SF-268 = test system: SF-268
M14 = test system: M14
HOP-62 = test system: HOP-62
NCI-H460 = test system: NCI-H460
SF-539 = test system: SF-539
OVCAR-4 = test system: OVCAR-4
NCI-H226 = test system: NCI-H226
SK-MEL-28 = test system: SK-MEL-28
RPMI-8226 = test system: RPMI-8226
XF498 = test system: XF498
HCC 2998 = test system: HCC 2998
A549 = test system: A549
SN12C = test system: SN12C
HCT-15 = test system: HCT-15
MDA-N = test system: MDA-N
NCI/ADR-RES = test system: NCI/ADR-RES
Hs-578T = test system: Hs-578T
KM12 = test system: KM12
PC-3 = test system: PC-3
DLD-1 = test system: DLD-1
DU-145 = test system: DU-145
OVCAR-3 = test system: OVCAR-3
U-251 = test system: U-251
DMS-114 = test system: DMS-114
LOX IMVI = test system: LOX IMVI
HCT-116 = test system: HCT-116
SNB-75 = test system: SNB-75
MDA-MB-435 = test system: MDA-MB-435
MOLT-4 = test system: MOLT-4
SF-295 = test system: SF-295
K562 = test system: K562
SK-MEL-5 = test system: SK-MEL-5
SNB-19 = test system: SNB-19
CAKI-1 = test system: CAKI-1
CCRF-CEM = test system: CCRF-CEM
SNB-78 = test system: SNB-78
BT-549 = test system: BT-549
HOP-92 = test system: HOP-92
COLO 205 = test system: COLO 205
EKVX = test system: EKVX
ACHN = test system: ACHN
NCI-H23 = test system: NCI-H23
RXF 393 = test system: RXF 393
NCI-H522 = test system: NCI-H522
SK-MEL-2 = test system: SK-MEL-2

In the case of `O=S1(=O)CS(=O)(=O)OCCO1`, the GI50 (SK-OV-3) is reported as 28.5 µM (inactive), the GI50 (A498) is reported as 52.5 µM (inactive) and the GI50 (RXF 631) is reported as 47.8 µM (inactive). The GI50 (OVCAR-5) was 85.5 µM (inactive), the GI50 (MDA-MB-231) was 128 µM (inactive) and the GI50 (LXFL 529) was > 100 µM (inactive). The GI50 (TK-10) was 82.8 µM (inactive), the GI50 (786-0) was 10.9 µM (inactive) and the GI50 (UACC-257) was 50.5 µM (inactive). The GI50 (OVCAR-8) was 55.3 µM (inactive), the GI50 (M19-MEL) was 48.8 µM (inactive) and the GI50 (HT-29) was 63.1 µM (inactive). The GI50 (IGROV-1) was 33.4 µM (inactive), the GI50 (HL-60) was 11.2 µM (inactive) and the GI50 (SR) was 153 µM (inactive). For the same molecule, the GI50 (Malme-3M) was 55.1 µM (inactive), the GI50 (KM-20L2) was 76.6 µM (inactive) and the GI50 (T47D) was 53.1 µM (inactive). The GI50 (MCF7) was 51.8 µM (inactive), the GI50 (UACC-62) was 6.43 µM (inactive) and the GI50 (SW-620) was 40.9 µM (inactive). The GI50 (UO-31) was 61 µM (inactive), the GI50 (DMS-273) was 51.1 µM (inactive) and the GI50 (HOP-18) was > 100 µM (inactive). The GI50 (SF-268) was 15.1 µM (inactive), the GI50 (M14) was 47.3 µM (inactive) and the GI50 (HOP-62) was 12.4 µM (inactive). For the same molecule, the GI50 (NCI-H460) was 12.9 µM (inactive), the GI50 (SF-539) was 11.3 µM (inactive) and the GI50 (OVCAR-4) was 52.8 µM (inactive). The GI50 (NCI-H226) was 41.4 µM (inactive), the GI50 (SK-MEL-28) was 69 µM (inactive) and the GI50 (RPMI-8226) was 62.5 µM (inactive). The GI50 (XF498) was 15 µM (inactive), the GI50 (HCC 2998) was 46.6 µM (inactive) and the GI50 (A549) was 46.1 µM (inactive). The GI50 (SN12C) was 66.1 µM (inactive), the GI50 (HCT-15) was 48.6 µM and the GI50 (MDA-N) was 33.8 µM (inactive). The GI50 (NCI/ADR-RES) was 50.9 µM (inactive), the GI50 (Hs-578T) was 54.3 µM (inactive) and the GI50 (KM12) was 51.4 µM (inactive). For the same molecule, the GI50 (PC-3) was 82 µM (inactive), the GI50 (DLD-1) was 54.7 µM (inactive) and the GI50 (DU-145) was 51.1 µM (inactive). For the same molecule, the GI50 (OVCAR-3) was 40.3 µM (inactive), the GI50 (U-251) was 21.3 µM (inactive) and the GI50 (DMS-114) was 37.5 µM (inactive). The GI50 (LOX IMVI) was 16.8 µM (inactive), the GI50 (HCT-116) was 37.7 µM (inactive) and the GI50 (SNB-75) was 14 µM (inactive). The GI50 (MDA-MB-435) was 44.2 µM (inactive), the GI50 (MOLT-4) was 10.4 µM (inactive) and the GI50 (SF-295) was 13.2 µM (inactive). The GI50 (K562) was 60 µM (inactive), the GI50 (SK-MEL-5) was 40.1 µM (inactive) and the GI50 (SNB-19) was 31.7 µM (inactive). For the same molecule, the GI50 (CAKI-1) was 38.4 µM (inactive), the GI50 (CCRF-CEM) was 18.5 µM (inactive) and the GI50 (SNB-78) was 17.4 µM (inactive). The GI50 (BT-549) was 37.8 µM (inactive), the GI50 (HOP-92) was 31.2 µM (inactive) and the GI50 (COLO 205) was 46.6 µM (inactive). For the same molecule, the GI50 (EKVX) was 81.8 µM (inactive), the GI50 (ACHN) was 15.3 µM (inactive) and the GI50 (NCI-H23) was 37.8 µM (inactive). For the same molecule, the GI50 (RXF 393) was 41.6 µM (inactive), the GI50 (NCI-H522) was 48.3 µM (inactive) and the GI50 (SK-MEL-2) was 50.8 µM (inactive).
